Biological target: CXCR2 (Homo sapiens (Human), UniProt P25025)
Test: Inhibition of GROα-mediated intracellular calcium release in human neutrophils (FLIPR-3 Ca2+ mobilization)
Format: cell-based
Conditions: human neutrophils, 25 nM GROα; read-out: IC50
Description: In Tables 1-5, the IC50 or EC50 values were determined using the following assay. This assay measures intracellular calcium release via fluorescence as an indication of CXCR2 receptor activation by the physiologic agonist GROα. The assay is a Ca^2+ mobilization assay that measures changes in intracellular Ca^2+ with a FlexStation II scanning fluorometer using a FLIPR-3 Calcium Assay Kit (Molecular Devices, Sunnyvale, Calif.). The procedure is as follows:
1. Human neutrophils were suspended in HBSS^− (without Ca^2+ and Mg^2+) containing 10 mM HEPES and FLIPR Calcium 3 dye (3.1×10^7 cells in total volume 1.7 mL).
2. […] As controls, 2 μL of DMSO (1% final concentration) were added to other 2 tubes.
3. Cells were incubated for 30 min at 37° C.
4. After dye loading, tubes were centrifuged at 6,000 rpm for 1 min, supernatant was removed and cell pellet was re-suspended in 200 μL of HBSS^+ (with Ca^2+ and Mg^2+) containing 10 mM HEPES.
5. The compound or DMSO (control) was added again at the same concentrations that were used during cell loading.
6. The cell suspension was aliquoted into a 96-well Reading Plate (Corning) in a volume of 90 μL (10^5 cells/well). The Compound Plate contained physiologic agonist (GROα in HBSS^−) or HBSS^− (control).
9. The maximum change in fluorescence, expressed in arbitrary units over baseline (Max-Min) was used to determine the GROα response. […] Therapeutic Activity
Briefly, human neutrophils were suspended in HBSS^− (without Ca^2+ and Mg^2+) containing 10 mM HEPES and FLIPR Calcium 3 dye (3.1×10^7 cells in total volume 1.7 mL). […] As controls, 2 μL of DMSO (1% final concentration) were added to 2 other tubes. Cells were incubated for 30 min at 37° C. After dye loading, tubes were centrifuged at 6,000 rpm for 1 min, supernatant was removed and the cell pellet was re-suspended in 200 μL of HBSS^+ (with Ca^2+ and Mg^2+) containing 10 mM HEPES. The test compound or DMSO (control) was added again at the same concentrations that were used during cell loading. The cell suspension was aliquoted into a 96-well Reading Plate (Corning) in a volume of 90 μL (10^5 cells/well). The Compound Plate contained agonist (GROα in HBSS^−) or HBSS^− (control).
The maximum change in fluorescence, expressed in arbitrary units over baseline (Max-Min), was used to determine the GROα response.

Sequence of CXCR2 (P25025 whole entry): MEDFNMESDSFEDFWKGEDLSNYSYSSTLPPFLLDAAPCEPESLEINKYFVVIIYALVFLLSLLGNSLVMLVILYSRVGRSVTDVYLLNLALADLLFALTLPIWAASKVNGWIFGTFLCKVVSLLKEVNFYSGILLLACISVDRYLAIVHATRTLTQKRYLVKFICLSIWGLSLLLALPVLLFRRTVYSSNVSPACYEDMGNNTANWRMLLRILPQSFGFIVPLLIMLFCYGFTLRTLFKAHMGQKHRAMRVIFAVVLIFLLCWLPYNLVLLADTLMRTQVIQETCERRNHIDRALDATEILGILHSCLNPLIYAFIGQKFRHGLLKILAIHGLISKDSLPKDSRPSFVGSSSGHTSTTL

Row | IC50 | SMILES
1 | 1.23 µM | O=C(Nc1ccc(F)cc1)c1ccc(SCC(=O)C(c2ccccc2)c2ccccc2)nc1 [Compound 153]
2 | > 10 µM | O=C(CSc1ccc(C(=O)Nc2ccc(F)cc2)cn1)c1ccc2sccc2c1 [Compound 125]
3 | 3.9 ± 1.2 µM | O=C(Nc1ccc(F)cc1)c1ccc(SCc2nn[nH]n2)nc1 [Compound 49]
4 | > 10 µM | CC(C)(C)c1cc(C(=O)CSc2ccc(C(=O)Nc3ccc(F)cc3)cn2)cc(C(C)(C)C)c1O [Compound 96]
5 | > 10 µM | O=C(Nc1ccc(F)cc1)c1ccc(SCc2csc3ccc(Cl)cc23)nc1 [Compound 69]
6 | 0.703 ± 0.291 µM | Cn1c(C(=O)CSc2ccc(C(=O)Nc3ccc(F)cc3)cn2)nc2ccccc21 [Compound 151]
7 | 0.052 ± 0.005 µM | O=C(Nc1ccc(F)cc1)c1ccc(SCc2cc(F)ccc2B(O)O)nc1 [Compound 3]
8 | > 5 µM | Cc1nc(-c2ccc(C(F)(F)F)cc2)sc1C(=O)CSc1ccc(C(=O)Nc2ccc(F)cc2)cn1 [Compound 148]
9 | 0.689 ± 0.23 µM | O=C(Nc1ccc(F)cc1)c1ccc(SCCCCB(O)O)nc1 [Compound 10]
10 | > 10 µM | O=C(Nc1ccc(F)cc1)c1ccc(SCc2ccc(-c3ccsc3)cc2)nc1 [Compound 29]
11 | > 10 µM | Cc1ccc2cc(CSc3ccc(C(=O)Nc4ccc(F)cc4)cn3)ccc2n1 [Compound 55]
12 | > 10 µM | O=C(CSc1ccc(C(=O)Nc2ccc(F)cc2)cn1)c1ccc(OC(F)F)cc1 [Compound 107]
13 | > 5 µM | N#Cc1cccc(C(=O)CSc2ccc(C(=O)Nc3ccc(F)cc3)cn2)c1 [Compound 103]
14 | > 10 µM | O=C(Nc1ccc(F)cc1)c1ccc(SCC(=O)c2cc3ccccc3o2)nc1 [Compound 120]
15 | 0.105 ± 0.044 µM | O=C(Nc1ccc(O)cc1)c1ccc(SCc2ccccc2B(O)O)nc1 [Compound 163]
16 | > 10 µM | O=C(Nc1ccc(F)cc1)c1ccc(SCc2cc3nsnc3cc2Cl)nc1 [Compound 63]
17 | > 10 µM | O=C(CSc1ccc(C(=O)Nc2ccc(F)cc2)cn1)c1cccc(C(F)(F)F)c1 [Compound 109]
18 | 0.078 ± 0.018 µM | O=C(c1ccc(SCc2ccccc2B(O)O)nc1)N(Cc1ccccn1)c1ccc(F)cc1 [Compound 155]
19 | 0.387 ± 0.125 µM | O=C(Nc1ccc(F)cc1)c1ccc(SCCc2ccccc2B(O)O)nc1 [Compound 9]
20 | > 5 µM | O=C(Nc1ccc(F)cc1)c1ccc(SCC(=O)c2nc3ccccc3s2)nc1 [Compound 145]
21 | > 10 µM | O=C(CSc1ccc(C(=O)Nc2ccc(F)cc2)cn1)c1ccc(OC(F)(F)F)cc1 [Compound 106]
22 | 0.76 µM | O=C(Nc1ccc(F)cc1)c1ccc(SCC2COc3ccccc3O2)nc1 (stereo not shown) [Compound 51]
23 | > 5 µM | O=C(Nc1ccc(F)cc1)c1ccc(SCCCN2C(=O)c3ccc([N+](=O)[O-])cc3C2=O)nc1 [Compound 58]

Row | IC50 | SMILES
24 | 2.24 ± 0.71 µM | O=C(Nc1ccc(F)cc1)c1ccc(SCC(=O)c2ccsn2)nc1 [Compound 144]
25 | 0.016 µM | O=C(CSc1ccc(C(=O)Nc2ccc(F)cc2)cn1)c1ccc(Cl)c([N+](=O)[O-])c1 [Compound 94]
26 | > 10 µM | Cc1nc(-c2ccccc2)sc1C(=O)CSc1ccc(C(=O)Nc2ccc(F)cc2)cn1 [Compound 146]
27 | 2.12 ± 0.74 µM | O=C(O)c1cccc(CSc2ccc(C(=O)Nc3ccc(F)cc3)cn2)c1 [Compound 25]
28 | > 10 µM | Cc1c(C(=O)CSc2ccc(C(=O)Nc3ccc(F)cc3)cn2)cnn1-c1ccccc1 [Compound 150]
29 | 0.194 ± 0.052 µM | O=C(CSc1ccc(C(=O)Nc2ccc(F)cc2)cn1)c1ccc2c(c1)OCCO2 [Compound 140]
30 | 1.61 µM | O=C(Nc1ccc(F)cc1)c1ccc(SCc2ccc(Cl)c(Cl)c2)nc1 [Compound 27]
31 | 0.759 ± 0.19 µM | COC(=O)c1ccccc1CSc1ccc(C(=O)Nc2ccc(F)cc2)cn1 [Compound 21]
32 | 1.81 ± 0.52 µM | O=C(Nc1ccc(F)cc1)c1ccc(SCC(=O)c2cc3ccccc3s2)nc1 [Compound 128]
33 | > 5 µM | O=C(Nc1ccc(F)cc1)c1ccc(SCc2cc3ccccc3n2S(=O)(=O)c2ccccc2)nc1 [Compound 79]
34 | > 10 µM | O=C(Nc1ccc(F)cc1)c1ccc(SCc2ccc3nsnc3c2)nc1 [Compound 62]
35 | > 10 µM | Cc1ccc(C(=O)CSc2ccc(C(=O)Nc3ccc(F)cc3)cn2)cc1 [Compound 85]
36 | > 5 µM | O=C(Nc1ccc(F)cc1)c1ccc(SCC(=O)c2cc(-c3ccc(Cl)cc3Cl)no2)nc1 [Compound 136]
37 | > 10 µM | Cc1nc(-c2ccc(CSc3ccc(C(=O)Nc4ccc(F)cc4)cn3)cc2)no1 [Compound 34]
38 | > 10 µM | O=C(CSc1ccc(C(=O)Nc2ccc(F)cc2)cn1)c1ccc(-c2cccs2)cc1 [Compound 98]
39 | 0.275 ± 0.103 µM | CC1(C)OB(c2ccccc2CSc2ccc(C(=O)Nc3ccc(F)cc3)cn2)OC1(C)C [Compound 16]
40 | 0.78 ± 0.51 µM | Cc1c(C(=O)CSc2ccc(C(=O)Nc3ccc(F)cc3)cn2)sc2ccc(Cl)cc12 [Compound 132]
41 | 1.97 ± 0.75 µM | O=C(Nc1ccc(F)cc1)c1ccc(SCc2cccc(B(O)O)c2)nc1 [Compound 7]
42 | 0.21 ± 0.19 µM | O=C(CSc1ccc(C(=O)Nc2ccc(F)cc2)cn1)c1cccc(Cl)c1 [Compound 90]
43 | > 10 µM | CS(=O)(=O)c1ccc(C(=O)CSc2ccc(C(=O)Nc3ccc(F)cc3)cn2)cc1 [Compound 105]
44 | > 5 µM | O=C(Nc1ccc(F)cc1)c1ccc(SCC(=O)c2cccc3c2OCCO3)nc1 [Compound 141]
45 | > 10 µM | O=C(Nc1ccc(F)cc1)c1ccc(SCCCCN2C(=O)c3ccc([N+](=O)[O-])cc3C2=O)nc1 [Compound 59]

Row | SMILES | IC50
46 | O=C(Nc1ccc(F)cc1)c1ccc(SCC(=O)c2csc3ccc(Br)cc23)nc1 [Compound 127] | 1.25 ± 0.32 µM
47 | Cc1n[nH]c(C)c1CCSc1ccc(C(=O)Nc2ccc(F)cc2)cn1 [Compound 47] | > 5 µM
48 | CCOP(=O)(CSc1ccc(C(=O)Nc2ccc(F)cc2)cn1)OCC [Compound 82] | > 10 µM
49 | Cc1noc(-c2ccccc2)c1CSc1ccc(C(=O)Nc2ccc(F)cc2)cn1 [Compound 46] | > 10 µM
50 | Cc1nc(-c2ccc(CSc3ccc(C(=O)Nc4ccc(F)cc4)cn3)cc2)cs1 [Compound 36] | > 10 µM
51 | O=C(Nc1ccc(F)cc1)c1ccc(SC[N+](=O)[O-])nc1 [Compound 84] | > 10 µM
52 | O=C(Nc1ccc(F)cc1)c1ccc(SCc2ccncc2)nc1 [Compound 43] | > 5 µM
53 | O=C(c1ccc(SCc2ccccc2B(O)O)nc1)N(CC1CCCCN1)c1ccc(F)cc1 (stereo not shown) [Compound 156] | > 5 µM
54 | O=C(Nc1ccc(F)cc1)c1ccc(SCc2ccc(C(F)(F)F)o2)nc1 [Compound 74] | > 5 µM
55 | O=C(CSc1ccc(C(=O)Nc2ccc(F)cc2)cn1)c1cccc(Br)c1 [Compound 89] | 0.852 ± 0.292 µM
56 | O=C(Nc1ccc(F)cc1)c1ccc(SCc2cccc(OC(F)(F)F)c2)nc1 [Compound 42] | > 10 µM
57 | O=C(Nc1ccc(F)cc1)c1ccc(SCc2ccc(-n3cccc3)cc2)nc1 [Compound 31] | > 10 µM
58 | CC1(C)C2CC3OB(c4ccccc4CSc4ccc(C(=O)Nc5ccc(F)cc5)cn4)OC3(C)C1C2 (stereo not shown) [Compound 17] | 0.059 ± 0.029 µM
59 | O=C(Nc1ccc(F)cc1)c1ccc(SCc2cccc(-n3cccc3)c2)nc1 [Compound 38] | > 10 µM
60 | O=C(CSc1ccc(C(=O)Nc2ccc(F)cc2)cn1)c1ccc2c(c1)OCO2 [Compound 139] | > 5 µM

Same assay, conditions: read-out: IC50

Row | SMILES | IC50
61 | O=C(CSc1ccc(C(=O)Nc2ccc(F)cc2)cn1)c1ccc([N+](=O)[O-])cc1 [Compound 101] | > 10 µM

Source: US8981106B2, “Pyrimidinecarboxamides as CXCR2 modulators” (Syntrix Biosystems, Inc., priority 2009, dated 2015)
